Data published in US20100311729A1, “Substituted imidazopyridazines and pyrrolopyrimidines as lipid kinase inhibitors” (priority 2007, published 2010).

Columns and labels:
Format in all cases: biochemical
[1] = biological target: T1, PI3K beta (Homo sapiens, UniProt P42338); assay: PI3 kinase assay (Kinase-Glo luminescence), PI3K beta; conditions: Enzymatic Data; read-out: PI3K beta IC50 [umol]
T1 construct: for the full-length p110-b subunit are generated and fused by overlapping PCR; His tag (C); made in house; host or cells: baculovirus; Tn5 (Trichoplusia ni) or TiniPro insect cells
In short: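 PI3Kβ (25 nM, BV-949) with 10 μg/mL phosphatidylinositol in Tris pH 7.5/MgCl2/NaCl/CHAPS/DTT buffer; reaction started with 1 μM ATP, 60 min at room temperature. ATP depletion read by Kinase-Glo luminescence; 8-point dilutions, IC50 by four-parameter logistic fit.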

[2] = biological target: T2, PI3K gamma (Homo sapiens, UniProt P48736); assay: PI3 kinase assay (Kinase-Glo luminescence), PI3K gamma; conditions: Enzymatic Data; read-out: PI3K gamma IC50 [umol]
T2 construct: PI3Kγ BV-950 p110g(D144aa)-C-Term His Tag; His tag (C); made in house; host or cells: construct from the Roger Williams lab (MRC LMB) in pVL1393; baculovirus; Tn5 (Trichoplusia ni) or TiniPro insect cells
In short: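 Kinase-Glo luminescence assay with 1 μM ATP and 10 μg/mL phosphatidylinositol (final), reaction started by ATP addition. IC50 from 4-parameter logistic fit of percent inhibition at 8 compound concentrations (usually 10 down to 0.003 […]).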

[3] = biological target: T3, PI3K delta (Homo sapiens, UniProt O00329); assay: PI3 kinase assay (Kinase-Glo luminescence), PI3K delta; conditions: Enzymatic Data; read-out: PI3K delta IC50 [umol]
T3 construct: for the full-length p110-d subunit are generated and fused by overlapping PCR; His tag (C); made in house; host or cells: baculovirus; Tn5 (Trichoplusia ni) or TiniPro insect cells
In short: (§1)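 Recombinant PI3K constructs (alfa 10 nM, delta 10 nM, gamma 150 nM) with 1 μM ATP and 10 μg/mL phosphatidylinositol in Tris pH 7.5, MgCl2, NaCl, CHAPS, DTT; 60 min (alfa, delta) or 120 min (gamma) at room temperature. ATP depletion read by Kinase-Glo luminescence; IC50 from 4-parameter logistic fit over 8 concentrations.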

[4] = biological target: T4, PI3K alfa (Homo sapiens, UniProt P42336); assay: PI3 kinase assay (Kinase-Glo luminescence), PI3K alfa; conditions: Enzymatic Data; read-out: PI3K alfa IC50 [umol]
T4 construct: for the p110-a subunit (with a deletion of the first 20 amino acids); His tag (C); made in house; host or cells: baculovirus; Tn5 (Trichoplusia ni) or TiniPro insect cells
In short: as §1

T1 sequence (P42338 with tags, fused parts or gaps limits assumed): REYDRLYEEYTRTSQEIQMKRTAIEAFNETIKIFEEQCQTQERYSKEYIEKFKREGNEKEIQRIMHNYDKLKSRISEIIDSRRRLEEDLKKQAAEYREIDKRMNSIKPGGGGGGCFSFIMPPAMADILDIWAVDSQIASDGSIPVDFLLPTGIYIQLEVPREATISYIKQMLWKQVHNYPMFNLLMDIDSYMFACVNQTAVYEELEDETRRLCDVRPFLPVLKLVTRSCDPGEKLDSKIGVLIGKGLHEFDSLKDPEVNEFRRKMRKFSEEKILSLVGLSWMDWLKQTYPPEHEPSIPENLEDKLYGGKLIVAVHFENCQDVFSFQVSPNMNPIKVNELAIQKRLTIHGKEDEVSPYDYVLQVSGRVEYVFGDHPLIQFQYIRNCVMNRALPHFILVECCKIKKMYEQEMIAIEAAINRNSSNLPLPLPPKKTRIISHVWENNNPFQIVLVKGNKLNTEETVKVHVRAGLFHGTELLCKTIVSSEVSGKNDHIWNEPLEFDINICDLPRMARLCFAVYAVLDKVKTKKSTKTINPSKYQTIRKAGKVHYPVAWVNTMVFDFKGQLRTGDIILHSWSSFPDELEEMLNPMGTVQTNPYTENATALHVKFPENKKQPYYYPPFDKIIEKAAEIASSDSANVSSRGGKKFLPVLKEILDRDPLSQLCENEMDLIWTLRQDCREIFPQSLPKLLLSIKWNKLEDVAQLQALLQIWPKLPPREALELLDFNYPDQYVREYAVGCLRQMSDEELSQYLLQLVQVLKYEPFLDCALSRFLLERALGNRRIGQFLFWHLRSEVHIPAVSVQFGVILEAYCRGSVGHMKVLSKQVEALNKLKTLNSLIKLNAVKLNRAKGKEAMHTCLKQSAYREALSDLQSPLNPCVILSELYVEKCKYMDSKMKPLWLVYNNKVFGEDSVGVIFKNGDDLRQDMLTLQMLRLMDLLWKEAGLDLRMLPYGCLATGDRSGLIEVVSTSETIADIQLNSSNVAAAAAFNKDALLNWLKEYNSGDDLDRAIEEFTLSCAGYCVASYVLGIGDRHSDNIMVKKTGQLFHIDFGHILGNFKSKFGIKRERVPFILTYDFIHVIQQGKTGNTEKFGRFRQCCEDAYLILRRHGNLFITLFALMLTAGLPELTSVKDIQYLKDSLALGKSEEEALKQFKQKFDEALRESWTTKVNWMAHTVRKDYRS
T2 sequence (P48736 144-1102 limits assumed): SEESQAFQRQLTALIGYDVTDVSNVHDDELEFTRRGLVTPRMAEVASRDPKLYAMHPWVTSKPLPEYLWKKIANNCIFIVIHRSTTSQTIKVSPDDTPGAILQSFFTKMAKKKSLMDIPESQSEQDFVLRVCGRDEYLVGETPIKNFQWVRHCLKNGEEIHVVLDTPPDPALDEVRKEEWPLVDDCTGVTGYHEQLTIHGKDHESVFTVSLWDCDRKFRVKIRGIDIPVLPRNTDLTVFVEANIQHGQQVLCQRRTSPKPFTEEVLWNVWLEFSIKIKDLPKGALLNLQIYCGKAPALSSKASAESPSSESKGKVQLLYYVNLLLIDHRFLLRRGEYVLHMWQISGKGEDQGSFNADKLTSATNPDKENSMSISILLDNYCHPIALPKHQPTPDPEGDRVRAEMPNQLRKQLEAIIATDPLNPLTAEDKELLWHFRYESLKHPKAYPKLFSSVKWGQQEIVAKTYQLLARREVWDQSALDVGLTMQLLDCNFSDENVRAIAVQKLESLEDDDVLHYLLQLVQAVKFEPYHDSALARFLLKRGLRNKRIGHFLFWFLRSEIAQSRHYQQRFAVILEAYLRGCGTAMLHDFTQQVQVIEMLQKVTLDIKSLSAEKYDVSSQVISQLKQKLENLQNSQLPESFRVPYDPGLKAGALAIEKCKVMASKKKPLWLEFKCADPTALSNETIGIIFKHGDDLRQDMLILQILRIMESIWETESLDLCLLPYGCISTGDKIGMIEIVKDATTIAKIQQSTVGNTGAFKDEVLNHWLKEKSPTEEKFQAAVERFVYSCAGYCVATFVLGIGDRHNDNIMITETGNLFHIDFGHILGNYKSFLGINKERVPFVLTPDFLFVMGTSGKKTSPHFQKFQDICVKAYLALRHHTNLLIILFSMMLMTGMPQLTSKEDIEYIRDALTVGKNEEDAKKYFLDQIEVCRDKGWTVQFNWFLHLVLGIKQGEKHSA
T4 sequence (P42336 with tags, fused parts or gaps limits assumed): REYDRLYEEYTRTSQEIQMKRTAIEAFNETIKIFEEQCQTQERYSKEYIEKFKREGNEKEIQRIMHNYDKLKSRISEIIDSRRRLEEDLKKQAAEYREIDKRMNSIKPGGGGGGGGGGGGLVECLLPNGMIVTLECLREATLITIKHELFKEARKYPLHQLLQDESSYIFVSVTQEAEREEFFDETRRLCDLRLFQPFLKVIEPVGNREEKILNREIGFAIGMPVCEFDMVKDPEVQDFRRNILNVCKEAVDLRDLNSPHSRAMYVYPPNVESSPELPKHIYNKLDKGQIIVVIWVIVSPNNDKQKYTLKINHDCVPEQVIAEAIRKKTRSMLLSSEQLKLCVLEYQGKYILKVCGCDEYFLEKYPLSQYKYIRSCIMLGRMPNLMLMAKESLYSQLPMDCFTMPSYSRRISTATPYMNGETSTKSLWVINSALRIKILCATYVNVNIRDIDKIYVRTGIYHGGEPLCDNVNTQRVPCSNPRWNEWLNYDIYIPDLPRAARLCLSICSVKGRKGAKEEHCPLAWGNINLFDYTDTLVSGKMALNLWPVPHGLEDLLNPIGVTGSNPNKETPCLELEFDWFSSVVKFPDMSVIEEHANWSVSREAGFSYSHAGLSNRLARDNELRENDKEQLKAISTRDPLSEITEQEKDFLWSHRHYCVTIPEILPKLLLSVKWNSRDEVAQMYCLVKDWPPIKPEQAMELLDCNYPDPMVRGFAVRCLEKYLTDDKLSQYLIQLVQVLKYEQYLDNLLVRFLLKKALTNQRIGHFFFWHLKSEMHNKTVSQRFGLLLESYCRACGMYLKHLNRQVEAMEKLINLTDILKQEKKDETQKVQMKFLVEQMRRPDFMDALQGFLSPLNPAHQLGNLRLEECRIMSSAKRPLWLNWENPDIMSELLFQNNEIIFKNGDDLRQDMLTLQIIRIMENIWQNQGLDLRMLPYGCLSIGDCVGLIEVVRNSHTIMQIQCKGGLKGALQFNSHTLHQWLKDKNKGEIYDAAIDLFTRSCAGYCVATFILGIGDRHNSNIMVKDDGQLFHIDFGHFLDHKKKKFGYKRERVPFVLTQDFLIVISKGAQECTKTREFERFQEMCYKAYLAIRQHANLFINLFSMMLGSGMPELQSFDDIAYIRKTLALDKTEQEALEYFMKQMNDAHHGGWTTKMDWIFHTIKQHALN
T3 sequence (O00329 with tags, fused parts or gaps limits assumed): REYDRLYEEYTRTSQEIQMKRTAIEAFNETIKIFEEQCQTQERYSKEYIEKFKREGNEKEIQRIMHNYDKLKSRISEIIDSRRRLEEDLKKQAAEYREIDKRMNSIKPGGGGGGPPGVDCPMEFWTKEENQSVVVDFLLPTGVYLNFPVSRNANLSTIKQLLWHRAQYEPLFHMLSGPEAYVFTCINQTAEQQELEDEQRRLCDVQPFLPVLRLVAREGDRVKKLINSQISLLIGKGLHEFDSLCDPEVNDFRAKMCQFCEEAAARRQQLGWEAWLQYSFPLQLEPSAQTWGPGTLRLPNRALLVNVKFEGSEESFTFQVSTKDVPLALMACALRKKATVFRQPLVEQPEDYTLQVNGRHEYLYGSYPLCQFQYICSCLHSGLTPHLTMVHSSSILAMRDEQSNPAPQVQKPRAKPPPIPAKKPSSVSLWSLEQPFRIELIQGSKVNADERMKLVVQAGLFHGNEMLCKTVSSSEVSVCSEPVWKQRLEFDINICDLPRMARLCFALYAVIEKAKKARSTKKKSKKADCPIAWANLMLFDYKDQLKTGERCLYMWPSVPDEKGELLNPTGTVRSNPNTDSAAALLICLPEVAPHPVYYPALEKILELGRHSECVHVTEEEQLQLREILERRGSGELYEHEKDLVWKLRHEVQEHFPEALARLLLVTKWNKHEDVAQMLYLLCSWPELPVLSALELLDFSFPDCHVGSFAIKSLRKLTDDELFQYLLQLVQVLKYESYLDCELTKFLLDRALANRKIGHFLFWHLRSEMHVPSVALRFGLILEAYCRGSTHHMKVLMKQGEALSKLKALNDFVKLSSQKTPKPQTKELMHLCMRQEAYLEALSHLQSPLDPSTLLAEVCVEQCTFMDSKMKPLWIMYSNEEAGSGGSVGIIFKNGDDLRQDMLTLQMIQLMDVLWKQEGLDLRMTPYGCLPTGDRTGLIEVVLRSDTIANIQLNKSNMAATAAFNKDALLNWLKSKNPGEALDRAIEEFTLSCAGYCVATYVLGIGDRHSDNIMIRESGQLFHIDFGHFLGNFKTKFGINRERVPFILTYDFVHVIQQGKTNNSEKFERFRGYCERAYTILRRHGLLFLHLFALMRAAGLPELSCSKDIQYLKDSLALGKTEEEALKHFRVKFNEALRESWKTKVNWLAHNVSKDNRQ

| Compound | IC50 [1] [nM] | IC50 [2] [nM] | IC50 [3] [nM] | IC50 [4] [nM] |
| --- | --- | --- | --- | --- |
| O=C1CCCN1CCOc1ccc(-c2ccc3ncc(-c4cnc5[nH]ccc5c4)n3n2)cc1F [Example 96, 1-(2-{2-Fluoro-4-[3-(1H-pyrrolo [2,3-b]pyridin-5-yl)-imidazo [1,2-b]pyridazin-6-yl]-phenoxy)-ethyl)-pyrrolidin-2-one] | 4710 | 7660 | 1090 | 501 |
| Nc1ncc(-c2cnc3ccc(-c4ccc(OCCN5CCCC5=O)cc4)nn23)cc1C(F)(F)F [Example 97, 1-(2-{4-[3-(6-Amino-5-trifluoro-methyl-pyridin-3-yl)-imidazo [1,2-b]pyridazin-6-yl]-phenoxy}-ethyl)-pyrrolidin-2-one] | 1550 | 1020 | 56 | 75 |
| O=C1CCCN1CCOc1ccc(-c2ccc3ncc(-c4cnc5[nH]ccc5c4)n3n2)cc1 [Example 98, 1-(2-{4-[3-(1H-Pyrrolo[2,3-b]pyridin-5-yl)-imidazo [1,2-b]pyridazin-6-yl]-phenoxy}-ethyl)-pyrrolidin-2-one] | 2940 | 2210 | 120 | 28 |
| Nc1ncc(-c2ccc3ncc(-c4ccc(C(=O)NCCN5CCOCC5)c(F)c4)n3n2)cc1C(F)(F)F [Example 99, 4-[6-(6-Amino-5-trifluoro-methyl-pyridin-3-yl)-imidazo [1,2-b]pyridazin-3-yl]-2-fluoro-N-(2-morpholin-4-yl-ethyl)-benzamide] | 82 | 584 | 15 | 9 |
| Nc1ncc(-c2ccc3ncc(-c4ccc(C(=O)NCCCN5CCOCC5)c(F)c4)n3n2)cc1C(F)(F)F [Example 100, 4-[6-(6-Amino-5-trifluoro-methyl-pyridin-3-yl)-imidazo [1,2-b]pyridazin-3-yl]-2-fluoro-N-(3-morpholin-4-yl-propyl)-benzamide] | 94 | 419 | 26 | 24 |
| Nc1ncc(-c2ccc3ncc(-c4ccc(C(=O)N5CCN(Cc6ccccn6)CC5)c(F)c4)n3n2)cc1C(F)(F)F [Example 101, {4-[6-(6-Amino-5-trifluoro-methyl-pyridin-3-yl)-imidazo [1,2-b]pyridazin-3-yl]-2-fluoro-phenyl}-(4-pyridin-2-ylmethyl-piperazin-1-yl)-methanone] | 168 | 1170 | 30 | 8 |
| Nc1ncc(-c2ccc3ncc(-c4ccc(S(=O)(=O)N5CCOCC5)cc4)n3n2)cc1C(F)(F)F [Example 102, 5-{3-[4-(Morpholine-4-sulfonyl)-phenyl]-imidazo[1,2-b]pyridazin-6-yl}-3-trifluoromethyl-pyridin-2-ylamine] | 1270 | 1060 | 17 | 43 |
| COc1cc(-c2ccc3ncc(-c4cnc(N)c(C(F)(F)F)c4)n3n2)ccc1OCCN1CCCC1=O [Example 103, 1-(2-{4-[3-(6-Amino-5-trifluoro-methyl-pyridin-3-yl)-imidazo [1,2-b]pyridazin-6-yl]-2-methoxy-phenoxy}-ethyl)-pyrrolidin-2-one] | 134 | 573 | 11 | 4 |
| C=CS(=O)(=O)c1ccc(-c2cnc3ccc(-c4cnc(N)c(C(F)(F)F)c4)nn23)cc1 [Example 104, 5-[3-(4-Ethene-sulfonyl-phenyl)-imidazo [1,2-b]pyridazin-6-yl]-3-trifluoro-methyl-pyridin-2-ylamine] | 143 | 1420 | 21 | 27 |

Second part, the molecule after the results:

| IC50 [1] [nM] | IC50 [2] [nM] | IC50 [3] [nM] | IC50 [4] [nM] | Compound |
| --- | --- | --- | --- | --- |
| 463 | 362 | 18 | 24 | Nc1ncc(-c2ccc3ncc(-c4ccc(S(=O)(=O)CCN5CCOCC5)cc4)n3n2)cc1C(F)(F)F [Example 105, 5-{3-[4-(2-Morpholin-4-yl-ethane-sulfonyl)-phenyl]-imidazo [1,2-b]pyridazin-6-yl}-3-trifluoro-methyl-pyridin-2-ylamine] |
| > 9100 | 788 | 291 | 171 | Nc1ncc(-c2ccc3ncc(-c4ccc(C(=O)N5CCN(CCN6CCOCC6)CC5)c(F)c4)n3n2)cc1C(F)(F)F [Example 106, {4-[6-(6-Amino-5-trifluoro-methyl-pyridin-3-yl)-imidazo [1,2-b]pyridazin-3-yl]-2-fluoro-phenyl}-[4-(2-morpholin-4-yl-ethyl)-piperazin-1-yl]-methanone] |
| 497 | 827 | 30 | 26 | CN(C)CCN1CCN(C(=O)c2ccc(-c3cnc4ccc(-c5cnc(N)c(C(F)(F)F)c5)nn34)cc2F)CC1 [Example 107, {4-[6-(6-Amino-5-trifluoro-methyl-pyridin-3-yl)-imidazo [1,2-b]pyridazin-3-yl]-2-fluoro-phenyl}-[4-(2-dimethyl-amino-ethyl)-piperazin-1-yl]-methanone] |
| 575 | 565 | 142 | 91 | CCN(CC)CCNC(=O)c1ccc(-c2cnc3ccc(-c4cnc(N)c(C(F)(F)F)c4)nn23)cc1F [Example 108, 4-[6-(6-Amino-5-trifluoro-methyl-pyridin-3-yl)-imidazo [1,2-b]pyridazin-3-yl]-N-(2-diethyl-amino-ethyl)-2-fluoro-benzamide] |
| 62 | 405 | 10 | 6 | COc1cc(-c2cnc3ccc(-c4cnc(N)c(C(F)(F)F)c4)nn23)ccc1C(=O)O [Example 109, 4-[6-(6-Amino-5-trifluoromethyl-pyridin-3-yl)-imidazo [1,2-b]pyridazin-3-yl]-2-methoxy-benzoic acid] |
| 1180 | 1370 | 77 | 40 | COc1cc(-c2ccc3ncc(-c4cnc5[nH]ccc5c4)n3n2)ccc1OCCN1CCCC1=O [Example 110, 1-(2-{2-Methoxy-4-[3-(1H-pyrrolo [2,3-b]pyridin-5-yl)-imidazo [1,2-b]pyridazin-6-yl]-phenoxy}-ethyl)-pyrrolidin-2-one] |
| 7550 | > 9100 | 427 | 954 | COc1cc(-c2ccc3ncc(-c4ccc(S(=O)(=O)CCN5CCOCC5)cc4)n3n2)ccc1OCCN1CCCC1=O [Example 111, 1-[2-(2-Methoxy-4-{3-[4-(2-morpholin-4-yl-ethane-sulfonyl)-phenyl]-imidazo [1,2-b]pyridazin-6-yl}-phenoxy)-ethyl]-pyrrolidin-2-one] |
| 623 | 956 | 14 | 12 | Nc1ncc(-c2ccc3ncc(-c4ccc(C(=O)N5CCN(Cc6cccnc6)CC5)c(F)c4)n3n2)cc1C(F)(F)F [Example 112, {4-[6-(6-Amino-5-trifluoro-methyl-pyridin-3-yl)-imidazo [1,2-b]pyridazin-3-yl]-2-fluoro-phenyl}-(4-pyridin-3-ylmethyl-piperazin-1-yl)-methanone] |
| 68 | 555 | 13 | 11 | Nc1ncc(-c2ccc3ncc(-c4ccc(C(=O)N5CCN(CCO)CC5)c(F)c4)n3n2)cc1C(F)(F)F [Example 113, {4-[6-(6-Amino-5-trifluoro-methyl-pyridin-3-yl)-imidazo [1,2-b]pyridazin-3-yl]-2-fluoro-phenyl}-[4-(2-hydroxy-ethyl)-piperazin-1-yl]-methanone] |
| 4070 | 1440 | 829 | 140 | Nc1ncc(-c2ccc3ncc(-c4ccc(C(=O)N5CCN(Cc6ccc(F)cc6)CC5)c(F)c4)n3n2)cc1C(F)(F)F [Example 114, {4-[6-(6-Amino-5-trifluoromethyl-pyridin-3-yl)-imidazo [1,2-b]pyridazin-3-yl]-2-fluoro-phenyl}-[4-(4-fluoro-benzyl)-piperazin-1-yl]-methanone] |
| 78 | 397 | 22 | 9 | COc1cc(-c2cnc3ccc(-c4cnc(N)c(C(F)(F)F)c4)nn23)ccc1C(=O)NCCN1CCOCC1 [Example 115, 4-[6-(6-Amino-5-trifluoro-methyl-pyridin-3-yl)-imidazo [1,2-b]pyridazin-3-yl]-2-methoxy-N-(2-morpholin-4-yl-ethyl)-benzamide] |
| 42 | 410 | 4 | 3 | COc1cc(-c2cnc3ccc(-c4cnc(N)c(C(F)(F)F)c4)nn23)ccc1C(=O)N1CCN(Cc2ccccn2)CC1 [Example 116, {4-[6-(6-Amino-5-trifluoro-methyl-pyridin-3-yl)-imidazo [1,2-b]pyridazin-3-yl]-2-methoxy-phenyl}-(4-pyridin-2-ylmethyl-piperazin-1-yl)-methanone] |
